In data set [1] the test system is MCF-7 cells. Put plainly: Annexin V-FITC/PI apoptosis assay. In kind it is cell-based, human. To be noted: 24 h.
The test system of data set [2] is MCF-7 cells. The experiment in a line: Cell cycle analysis (PI flow cytometry). The following applies: 10 μM, 24 h. In kind it is cell-based, human. The procedure:
Apoptosis is the primary mechanism by which potent chemotherapeutic agents destroy cancer cells. […] Flow cytometry measured cell growth in the G0-G1, S, and G2/M cell cycle phases.
Using the MCF-7 cell line, the cell cycle analysis was carried out like our previous investigation. A FACSCalibur flow cytometer was used to analyze the cells after they had been stained with DNA fluorochrome PI (Supplementary Materials). […]
photomultiplier voltage and for compensation setting adjustment to eliminate spectral overlap between the FL1 and the FL2 signals.
6. Cell cycle analysis
Breast carcinoma (MCF-7) cell was seeded at 2 × 10^5 cells/well density and incubated for 24 h in six-well plates. Foetal bovine serum (10%) was added, and the cells were incubated at 37 °C in an atmosphere of 5% CO2. The medium was replaced with 1% (v/v) DMSO containing 10.0 μM of […]
with 70% ethanol, rinsed with phosphate-buffered saline, and then stained with the DNA fluorochrome propidium iodide (PI) for 15 min at 37 °C. Then, samples were analyzed by flow cytometry using a FACSCalibur (Becton Dickinson). The cell cycle distributions were calculated using CellQuest software (Becton Dickinson). […]
(A flow cytometer gives signals particle by particle.)

The subject of data set [3] is CAKI-1. Put plainly: NCI anticancer screening (SRB), Renal Cancer subpanel. It is filed as cell-based, human. The following applies: 10.0 µM in one dose.
Data set [4] has as its system Leukemia subpanel tumor cell lines. Put plainly: NCI anticancer screening, subpanel summary. In kind it is cell-based. The following applies: leukemia; 10 µM, joint for compounds named together.
For data set [5], the system named is UO-31. Put plainly: NCI anticancer screening (SRB), Renal Cancer subpanel. In kind it is cell-based, human. To be noted: 10.0 µM in one dose.
Data set [6] has as its system 59 human cancer cell lines. The experiment in a line: NCI anticancer screening, full panel summary. The following applies: 10 µM single dose; for PCE (positive cytotoxic effect): ratio of cell lines with growth inhibition > 10% to total cell lines; for MG% (mean growth percent): mean over 59 cell lines.
Data set [7] deals with Breast Cancer subpanel tumor cell lines. The experiment in a line: NCI anticancer screening, subpanel summary. It is filed as cell-based. The following applies: breast; 10 µM, joint for compounds named together.
The subject of data set [8] is SR. The experiment in a line: NCI anticancer screening (SRB), Leukemia subpanel. It is filed as cell-based, human. To be noted: 10.0 µM in one dose.
Data set [9] relates to MCF-7. The experiment in a line: NCI anticancer screening (SRB), Breast Cancer subpanel. In kind it is cell-based, human. To be noted: 10.0 µM in one dose.
For data set [10], the system named is NSC Lung Cancer subpanel tumor cell lines. The experiment in a line: NCI anticancer screening, subpanel summary. In kind it is cell-based. The following applies: non-small cell lung; 10 µM, joint for compounds named together.
In data set [11] the test system is MDA-MB-231/ATCC. Put plainly: NCI anticancer screening (SRB), Breast Cancer subpanel. It is filed as cell-based, human. The following applies: 10.0 µM in one dose.
For data set [12], the system named is HCT-116. Put plainly: NCI anticancer screening (SRB), Colon Cancer subpanel. It is filed as cell-based, human. To be noted: 10.0 µM in one dose.
Data set [13] deals with HCT-15. Described as above. In kind it is cell-based, human. The following applies: 10.0 µM in one dose.
The subject of data set [14] is U251. The experiment in a line: NCI anticancer screening (SRB), CNS Cancer subpanel. The following applies: 10.0 µM in one dose. It is filed as cell-based, human.
The test system of data set [15] is MOLT-4. The experiment in a line: NCI anticancer screening (SRB), Leukemia subpanel. It is filed as cell-based, human. The following applies: 10.0 µM in one dose.
Data set [16] has as its system LOX IMVI. The experiment in a line: NCI anticancer screening (SRB), Melanoma subpanel. In kind it is cell-based, human. To be noted: 10.0 µM in one dose.
The subject of data set [17] is T-47D. The experiment in a line: NCI anticancer screening (SRB), Breast Cancer subpanel. In kind it is cell-based, human. To be noted: 10.0 µM in one dose.
Data set [18] has as its system PC-3. Put plainly: NCI anticancer screening (SRB), Prostate Cancer subpanel. In kind it is cell-based, human. To be noted: 10.0 µM in one dose.
Data set [19] deals with HT29. Put plainly: NCI anticancer screening (SRB), Colon Cancer subpanel. The following applies: 10.0 µM in one dose. In kind it is cell-based, human.
In data set [20] the test system is RPMI-8226. Put plainly: NCI anticancer screening (SRB), Leukemia subpanel. In kind it is cell-based, human. The following applies: 10.0 µM in one dose.
For data set [21], the system named is A498. Put plainly: NCI anticancer screening (SRB), Renal Cancer subpanel. It is filed as cell-based, human. To be noted: 10.0 µM in one dose.
The subject of data set [22] is Ovarian Cancer subpanel tumor cell lines. Put plainly: NCI anticancer screening, subpanel summary. The following applies: ovarian; 10 µM, joint for compounds named together. In kind it is cell-based.
Data set [23] has as its system NCI-H23. Put plainly: NCI anticancer screening (SRB), Non-Small Cell Lung Cancer subpanel. It is filed as cell-based, human. To be noted: 10.0 µM in one dose.
Data set [24] deals with EKVX. The data set is described as above. To be noted: 10.0 µM in one dose. In kind it is cell-based, human.
The subject of data set [25] is SF-295. The experiment in a line: NCI anticancer screening (SRB), CNS Cancer subpanel. In kind it is cell-based, human. To be noted: 10.0 µM in one dose.
Data set [26] relates to NCI-H226. The experiment in a line: NCI anticancer screening (SRB), Non-Small Cell Lung Cancer subpanel. It is filed as cell-based, human. The following applies: 10.0 µM in one dose.
The subject of data set [27] is SK-MEL-5. Put plainly: NCI anticancer screening (SRB), Melanoma subpanel. It is filed as cell-based, human. The following applies: 10.0 µM in one dose.
Data set [28] concerns MDA-MB-468. Put plainly: NCI anticancer screening (SRB), Breast Cancer subpanel. It is filed as cell-based, human. To be noted: 10.0 µM in one dose.
Data set [29] deals with SF-539. Put plainly: NCI anticancer screening (SRB), CNS Cancer subpanel. To be noted: 10.0 µM in one dose. It is filed as cell-based, human.
The test system of data set [30] is DU-145. Put plainly: NCI anticancer screening (SRB), Prostate Cancer subpanel. In kind it is cell-based, human. To be noted: 10.0 µM in one dose.
Data set [31] is described as follows: in vitro. To be noted: human. The procedure: the measured protein at the end of the drug treatment as compared to that at the beginning) indicating a net loss of cells following treatment was calculated from [(Ti − Tz)/Tz] […] = − 50.
Values were calculated for each of these three parameters if the activity level was reached; however, if the effect was not reached or exceeded, that parameter's value was expressed as more or less than the maximum or minimum concentration tested. The log GI50, log TGI, and log LC50 were then determined and defined as the mean of the logs of the individual GI50, TGI, and LC50 values. The lowest values are obtained with the most sensitive cell lines. The compound with log GI50 values −4 and <−4 was declared active.
2. In vitro cytotoxic activity towards normal fibroblast (WI-38) cells Cell Lines were obtained from the American Type Culture Collection; cells were cultured using DMEM (Invitrogen/Life Technologies) supplemented with 10% FBS (Hyclone), ten ug/ml of insulin (Sigma), and 1% penicillin–streptomycin. Cultures were removed from the incubator into a laminar flow hood, reconstituted with 3 mL of balanced salt solution without phenol red and serum, and then added to an amount equal to 10% of the culture medium volume. Cultures returned to the incubator for 2–4 h. After the incubation period, the resulting formazan crystals dissolved […]
medium volume. The absorbance was measured Spectrophotometrically at a wavelength of 570 […]
3. In vitro cyclooxygenase (COX-2) inhibition assay
The ability of the test compounds to inhibit COX-2 was determined using an enzyme immunoassay […]
manufacturer’s instructions.

The test system of data set [32] is MALME-3M. The experiment in a line: NCI anticancer screening (SRB), Melanoma subpanel. In kind it is cell-based, human. To be noted: 10.0 µM in one dose.
The test system of data set [33] is HOP-92. Put plainly: NCI anticancer screening (SRB), Non-Small Cell Lung Cancer subpanel. In kind it is cell-based, human. The following applies: 10.0 µM in one dose.
Data set [34] relates to UACC-257. Put plainly: NCI anticancer screening (SRB), Melanoma subpanel. To be noted: 10.0 µM in one dose. It is filed as cell-based, human.

Each structure is given as a SMILES string.

In turn, `CN[C@@H]1C[C@H]2O[C@@](C)([C@@H]1OC)n1c3ccccc3c3c4c(c5c6ccccc6n2c5c31)C(=O)NC4` [Staurosporine, staurosporine] had a Necrosis in data set [1] of 4.04%. In addition, the “Total Apoptosis” value in data set [1] (annexin V-FITC/PI) was determined as 34.39%. Moreover, the “Early Apoptosis” value in data set [1] (lower-right quadrant) amounted to 8.36%. For the same molecule, the “Late Apoptosis” value in [1] (upper-right quadrant) is listed as 21.99%. In data set [2], the “%G0–G1” value amounted to 65.74%, the “%G2-M” value is reported as 3.07%, the “%S” value was found to be 31.19% and the “Comment (cell cycle arrest phase)” value is “Growth arrest@G1/S”.
For the molecule `COc1cc(/C=N/NC(=O)c2ccc(NS(C)(=O)=O)cc2)ccc1O` [Compound 11], the GI% in data set [3] was found to be 16%; in data set [5], 10%; in [8], 10%; in [9], 11%. Moreover, the “GI range in subpanel” value in data set [4] is on record as 10.0%; in [7], 11.0%; in data set [10] it was 23.0%. Besides, the “PCE (positive cytotoxic effect)” value in data set [6] is on record as 4/59.
Turning to `Cc1ccc(NC(=O)c2ccc(CN3CCN(C)CC3)cc2)cc1Nc1nccc(-c2cccnc2)n1` [Imatinib, imatinib], the GI% in data set [11] is 11%; in [12] it was 19%; in [13], 12%; in data set [14] it was 11%; in [15], 18%; in data set [16] it was 12%. The GI% is recorded as 19% in data set [17]; 11% in [18]; 47% in data set [19]; 13% in data set [20]; 15% in [8]; 14% in data set [21]. Moreover, the GI% in data set [23] came out at 17%; in [24] it was 16%; in data set [25], 15%; in data set [26] it was 11%; in data set [27] it was 22%; in data set [28], 29%. In addition, the GI% in [29] was determined as 25%; in [30], 14%. The “MG% (mean growth percent)” value in [6] was determined as 92.62%; in [6] (listed as imatinib) it was 92.6%. Moreover, the “GI range in subpanel” value in data set [22] was at least 10.0%.
What is called IC50 is the point on the concentration scale where inhibition reaches its midpoint. The molecule `CS(=O)(=O)CCNCc1ccc(-c2ccc3ncnc(Nc4ccc(OCc5cccc(F)c5)c(Cl)c4)c3c2)o1` [Lapatinib, lapatinib] yielded an IC50 in [31] of 32 µM.
As to `CS(=O)(=O)Nc1ccc(C(=O)N/N=C/c2cccc(O)c2)cc1` [Compound 9], the GI% is reported as 12% in data set [32], 17% in data set [5] and 23% in data set [33]. Besides, the “GI range in subpanel” value in data set [4] is on record as 10.0%; in data set [7] it was 11.0%; in data set [10], 23.0%. For the same molecule, the “PCE (positive cytotoxic effect)” value in data set [6] is 3/59.
For the molecule `CS(=O)(=O)Nc1ccc(C(=O)N/N=C/c2ccc(O)cc2)cc1` [Compound 10], the GI% is reported as 10% in data set [3], 14% in data set [5], 15% in data set [21] and 10% in data set [34]. The “GI range in subpanel” value in data set [4] was determined as 10.0%; in [7], 11.0%; in [10], 23.0%. The “PCE (positive cytotoxic effect)” value in [6] is 4/59.

The record behind these values is paper PMC11728000, “Antitumor Activity and Multi-Target Mechanism of Phenolic Schiff Bases Bearing Methanesulfonamide Fragments: Cell Cycle Analysis and a Molecular Modeling Study” (International Journal of Molecular Sciences, 2024).
